Data published in US11844801B2, “Oral compositions of MK2 pathway inhibitor for treatment of immune conditions” (priority 2020, dated 2023).
Values after ≈ are worked out from the molar mass of the structure shown.

What was measured:
[1] = system: endogenous cytokines (TNF-α, IL-6, IL-8, MIP1β, IL-1RA); assay: Phase 2a RA study: endogenous plasma cytokines; type: in vivo, human; details: 50 mg BID
Experimental: Pharmacodynamics. […] For the endogenous cytokine levels (e.g., TNF-α, IL-1β, IL-6, IL-8, IFNγ, IL-17, IL-18, IL-10, IL-1α, and IL-1RA), 1 mL of serum will be drawn at each identified time point. […] Samples were evaluated at trough drug levels through day 84 and the last point is near Cmax following the final dose on day 84. The horizontal line ( ? ) in FIG. 19A depicts TNF-α levels in blood from normal volunteer subjects that were evaluated in the same assay. […] The horizontal line ( ? ) in FIG. 19B represents IL-1RA levels in healthy subjects. […] Plasma levels of three proinflammatory cytokines (TNF-α (FIG. 20A), IL-6 (FIG. 20C), IL-8 (FIG. 20B)), from a 13-plex tested are shown in this Figure, along with the chemokine MIP1β (FIG. 20D). The data are expressed as median % change relative to pre-dosing for drug treated patients. […] The horizontal line ( ? ) describes cytokine/chemokine level in plasma from normal healthy volunteer subjects.

IL-6 [2] = assay: LPS stimulated IL-6 production in human whole blood; type: cell-based
Experimental: Compounds were serially diluted in 100% DMSO (Sigma-Aldrich, D2650) followed by a 50× dilution into DMEM/10% FBS (Gibco, 11965/26140). Vehicle consisted of DMSO at a final assay concentration of 0.1%. Pin tools (V&P Scientific, Inc., VP246) were placed in the wells and the plate was placed at 37° C. with 5% CO2, with gently shaking for five minutes, then pin tools were removed and saved. […] Pin tools were placed in the wells in the same orientation as the previous step and gently shook for five minutes at 37° C. with 5% CO2, then removed. […] The plasma was harvested and assayed for TNF-α, IL-1β, and IL-6 using Meso Scale Discovery Technology V-plex human cytokine kits according to the kit protocol. The kit plates were read using an MSD Sector S 6000 instrument. Calculations to establish cytokine calibration curves and to determine analyte concentrations in the samples were carried out using the MSD DISCOVERY WORKBENCH® analysis software.

[3] = system: IP10, IFNγ, IL-6, IL-8 and TNF-α; assay: Poly(I:C) (TLR3) stimulated cytokines and chemokines in human whole blood; type: cell-based; details: poly(I:C) 100 μg/mL, 24 hours
Experimental: Human whole blood assays were performed as described above with the exceptions listed below. […] Compounds were serially diluted in 100% DMSO (Sigma-Aldrich, D2650) followed by a 25× dilution into DMEM/10% FBS (Gibco, 11965/26140). After the one-hour incubation with the compounds or vehicle, 20 μL of poly(I:C) (InvivoGen, HMW, tlrl-pic), in DPBS (Gibco, 14190-136) was added for a final concentration of 100 μg/mL to each well except for the no stimulus wells. After twenty-four hours of incubation with poly(I:C), plasma was harvested and assayed for IP10, IFNγ, IL-6, IL-8 and TNF-α using Meso Scale Discovery Technology V-plex human cytokine kits according to the kit protocol.

[4] = system: TNF-α, IL-1β, IL-6 and IL-8; assay: R848 (TLR7/TLR8) stimulated cytokines and chemokines in human whole blood; type: cell-based; details: 5 h, R848 0.5 μg/mL, five hours
Experimental: (§1) Human whole blood assays were performed as described above with the exceptions listed below. […] Compounds were serially diluted in 100% DMSO (Sigma-Aldrich, D2650) followed by a 10× dilution into RPMI (Gibco, 11875). After the one-hour incubation with the compounds or vehicle, 2 μL of R848 (InvivoGen, tlrl-r848) in RPMI (Gibco, 11875) was added for a final concentration of 0.5 μg/mL to each well except for the no stimulus wells. After five hours of incubation with R848, plasma was harvested and assayed for TNF-α, IL-1β, IL-6 and IL-8 using Meso Scale Discovery Technology V-plex human cytokine kits according to the kit protocol.

IL-1β = assay: R848 stimulated IL-1β production in human whole blood; type: cell-based; details: R848, 0.5 ug/mL, 5 hr
Experimental: as §1

IL-6 [5] = assay: R848 stimulated IL-6 production in human whole blood; type: cell-based; details: R848, 0.5 ug/mL, 5 hr
Experimental: as §1

TNF-α [6] = assay: IL-1β stimulated TNF-α production in human whole blood; type: cell-based
Experimental: Compounds were serially diluted in 100% DMSO (Sigma-Aldrich, D2650) followed by a 10× dilution into RPMI (Gibco, 11875). After the one-hour incubation with the compounds or vehicle, 2 μL of IL-1β (R&D, 201-LB-010) in RPMI (Gibco, 11875) was added for a final concentration of 0.5 μg/mL to each well except for the no stimulus wells. […]

TNF-α [7] = assay: Differentiated U937 cell LPS stimulated cytokine assay (TNF-α); type: cell-based; details: Homo sapiens, U-937, U937 cells, 100 ng/mL, 4 hr
Experimental: U937 Cell differentiation and LPS stimulated cytokine assay: The U937 human pre-monocytic cell line (ATCC, CRL-1593.2) was grown in complete media: RPMI 1640 (Gibco, A10491) with penicillin-streptomycin (10 U/mL)-glutamine (2 mM) (Gibco, 10378016) and 10% FBS(Gibco, 26140-079). Cells were differentiated to a monocyte/macrophage phenotype with the addition of PMA (Sigma-Aldrich, P1585) (20 ng/mL, 24 hours), washed with DPBS (Gibco, 14190-136) and incubated in complete media for 24 hours at 37° C., 5% CO2. Following recovery, the cells were scraped, counted, re-plated in complete media in accordance with the experimental design and incubated for an additional 24 hours at 37° C., 5% CO2 prior to stimulation with LPS (Sigma-Aldrich, L2630) as described below. Differentiated U937 cells were pretreated for one hour in the presence of serially diluted compound or vehicle then stimulated with LPS at a final concentration of 100 ng/mL for four hours. Culture media was then collected for determination of cytokine levels using Meso Scale Technology.

IL-1α = assay: Human PBMC LPS stimulated IL-1α biosynthesis; type: cell-based; details: hPBMC, 100 ng/mL, 24 hr
TNF-α [8] = assay: Rat whole blood LPS stimulated TNF-α; type: cell-based; details: 100 ng/mL, 4 hr

In the case of Cc1cnc(-c2ccnc(C(C)(C)O)n2)cc1-n1c(C)cc(OCc2ncc(F)cc2F)c(Cl)c1=O (single isomer, unassigned) [ATI-450, 3-chloro-4-((3,5-difluoropyridin-2-yl)methoxy)-2′-(2-(2-hydroxypropan-2-yl)pyrimidin-4-yl)-5′,6-dimethyl-2H-[1,4′-bipyridin]-2-one], the “median concentrations of endogenous TNF-α, IL-6, IL-8, and MIP1β” value ([1]; 12-week period) is reported as “marked and sustained inhibition”, the “endogenous plasma IL-1RA” value ([1]; 12 weeks) is reported as “not impacted by ATI-450” and the “endogenous plasma IL-6, IL-8, and MIP1β” value ([1]; 12 weeks) is reported as “reduced at week 4 and this reduction was maintained through the 12 weeks”. The “endogenous plasma TNF-α” value ([1]; trough) was “rapidly reduced by 4 weeks of dosing”, the IC50 (IL-6 [2]; Human Whole Blood, LPS, 100 ng/mL, 4 or 24 hr, read-out: IC50, IL-6) was 135 ± 97 nM and the IC50 (IL-6 [2]; human whole blood, LPS 100 ng/mL, read-out: IC50, LPS-stimulated IL-6) was 10 to 100 nM. For the same molecule, the IC50 [3] was 10 to 100 nM, the IC50 [4] was roughly 100 nM and the IC50 (IL-1β) was 95.6 ± 34.8 nM. It also gave an IC50 (IL-6 [5]) of 79.2 ± 17.2 nM, an IC50 (TNF-α [6]; Human Whole Blood, IL-1β, 10 ng/mL, 5 hr) of 12.2 ± 4 nM and an IC80 (TNF-α [6]; human whole blood) of 0.031 ± 0.006 µg/mL (≈ 0.0603 µM). The IC50 (TNF-α [7]) was 1.55 ± 0.35 nM, the IC50 (IL-1α) was 31.1 nM and the IC50 (TNF-α [8]) was 14.3 ± 1.9 nM.
